Source: patent publication US12280038B2, “L-pag derivatives for treatment of sleep disordered breathing (SDB)” (priority 2016, dated 2025)
Read-outs that look alike come from different tables or passages of the source.

Columns and labels:
HO-2 null mice [1] = settings: any of the doses tested
Protocol: HO-2 null mice were treated with increasing doses of L-PAG via the intraperitoneal route, and breathing was monitored continuously for 6 hours. […] The anti-apneic effects of L-PAG were further analyzed at 30 mg/kg.

carotid body = experiment: Ex vivo carotid body sensory nerve response to hypoxia; settings: 30 mg/kg, HO-2 null mice
Protocol: Sensory nerve activity was recorded from ex vivo carotid bodies harvested from anesthetized mice. Briefly, the carotid sinus nerve was treated with collagenase, and several nerve bundles were isolated. Action potentials from one of the nerve bundles were recorded using a suction electrode (˜20-μm-diameter tip). […] Action potentials of similar height, duration, and shape (“single” unit) were selected using Spike histogram software (LabChart 7 Pro) for analysis of the sensory nerve activity. To obtain a stable baseline sensory nerve activity, carotid bodies were first superfused for 1 hour with normoxia-equilibrated medium. Subsequently, baseline sensory nerve activity under normoxia was recorded for 5 min. Sensory nerve responses to hypoxia were monitored for 3 min. The PO2 in the medium was determined by a blood gas analyzer (ABL 5). Hypoxic response was measured as the difference between the sensory nerve activity under baseline and during hypoxia (Δimp/s).

[2] = biological target: T1, cystathionine-γ-lyase (CSE) (Mus musculus, UniProt Q8VCN5); experiment: In vitro assay of H2S production in mouse liver homogenates (CSE); type: biochemical
T1 construct: H2S production in an in vitro assay using mouse liver homogenates; from tissue; host or cells: mouse liver homogenate
Protocol: (§1) FIGS. 10A-10B Effect of CSE inhibitor on H2S production. FIG. 10A depicts a dose-response of L-propargylglycine (L-PAG) on H2S production in an in vitro assay using mouse liver homogenates. FIG. 10B depicts the effect of L-PAG (30 μM) on H2S generation by CSE and CBS in mouse liver homogenates. Data are presented as mean±SEM from 4 independent experiments. **P<0.01; n.s., not significant.
(§2) The effect of pharmacological CSE blockade on restoration of stable breathing in HO-2 null mice was examined. L-propargylglycine (L-PAG) is an inhibitor of CSE. […] The inhibitory effects of L-PAG were selective to CSE because H2S synthesis by cystathionine-β-synthase was unaffected (FIG. 10 B).

cystathionine-β-synthase = biological target: T2, cystathionine-β-synthase (Mus musculus, UniProt Q91WT9); experiment: In vitro assay of H2S production in mouse liver homogenates (CBS); type: biochemical; settings: L-PAG 30 μM
T2 construct: H2S generation by CSE and CBS in mouse liver homogenates; from tissue; host or cells: mouse liver homogenate
T2 sequence (Q91WT9 1-561): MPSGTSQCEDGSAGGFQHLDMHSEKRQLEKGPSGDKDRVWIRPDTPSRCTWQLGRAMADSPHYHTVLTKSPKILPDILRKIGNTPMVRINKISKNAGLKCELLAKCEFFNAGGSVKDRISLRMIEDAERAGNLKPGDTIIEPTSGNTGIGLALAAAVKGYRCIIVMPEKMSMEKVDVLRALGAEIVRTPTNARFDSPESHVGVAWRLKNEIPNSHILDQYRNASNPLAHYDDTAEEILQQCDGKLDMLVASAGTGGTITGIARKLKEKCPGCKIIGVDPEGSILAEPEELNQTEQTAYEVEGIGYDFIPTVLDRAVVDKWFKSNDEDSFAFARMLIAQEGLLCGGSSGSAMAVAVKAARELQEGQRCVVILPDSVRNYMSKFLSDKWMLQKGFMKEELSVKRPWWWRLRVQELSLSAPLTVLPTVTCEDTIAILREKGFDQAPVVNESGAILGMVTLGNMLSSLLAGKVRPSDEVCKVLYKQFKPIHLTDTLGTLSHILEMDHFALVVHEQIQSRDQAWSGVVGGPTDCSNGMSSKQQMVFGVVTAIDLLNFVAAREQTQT
Protocol: as §1, §2

in vivo = experiment: in vivo
Protocol: Comparisons of L-PAG plasma levels with (a) dose-response parameters for L-PAG pharmacologic activity and (b) the kinetics of reversal of this pharmacologic activity, support the conclusion that a threshold plasma drug level of approximately 12 to 15 μg/ml is necessary to sustain anti-apnea action. This threshold plasma drug level is consistent with both (a) the minimal anti-apnea activity of the 10 mg/kg dose of L-PAG and (b) the kinetics of the reversal of anti-apnea activity with time seen at L-PAG doses of 30 mg/kg or higher.

HO-2 null mice [3] = experiment: Breathing (apnea, hypoapnea) monitored by whole-body plethysmography in unsedated HO-2 null mice; type: in vivo; settings: for ED50: Mus musculus
Protocol: Experiments were approved by the Institutional Animal Care and Use Committee of the University of Chicago and were performed on age-matched C57/BL6 wild type and HO-2^−/− mice. At the end of the experiment, mice were euthanized by intra-cardiac injection (0.1 mL) of euthanasia solution (Beuthanasia-D Special, Schering-Plough).
Breathing was continuously monitored under room air from 10:00 AM to 4:00 PM by whole-body plethysmography (emka Technologies, Falls Church, VA) while ambient temperatures were maintained at 25±1° C. Breathing signals were collected and stored with a data acquisition system(emka Technologies, Falls Church, VA; or PowerLab 8/35, AD Instruments, Australia), and scored off-line with commercial software (RemLogic™, Natus). Apneas were scored when there was a complete pause of respiration for the duration of 3 or more breaths. Hypopneas were scored when there was a 30% reduction in tidal volume or signal amplitude, often with an abrupt return to hyperventilation breaths at the end of the event.

T1 sequence (Q8VCN5 whole entry): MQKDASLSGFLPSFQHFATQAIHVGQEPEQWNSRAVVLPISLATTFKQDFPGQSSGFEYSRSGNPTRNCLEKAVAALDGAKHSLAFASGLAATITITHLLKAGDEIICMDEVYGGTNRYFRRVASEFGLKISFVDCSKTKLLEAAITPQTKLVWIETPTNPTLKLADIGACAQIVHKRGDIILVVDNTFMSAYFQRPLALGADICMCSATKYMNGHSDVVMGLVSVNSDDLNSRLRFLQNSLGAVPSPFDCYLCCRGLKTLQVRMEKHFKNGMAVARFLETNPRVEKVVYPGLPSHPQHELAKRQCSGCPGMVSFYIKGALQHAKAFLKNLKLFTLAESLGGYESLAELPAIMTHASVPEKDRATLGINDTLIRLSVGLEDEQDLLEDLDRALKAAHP

**Q.** Which mortality (HO-2 null mice [1]) does the source give for `C#CC[C@H](N)C(=O)O` [L-PAG, L-propargylglycine] here?
**A.** no mortality

**Q.** And the “carotid body sensitivity to hypoxia” value (carotid body)?
**A.** markedly reduced

**Q.** And the “CSE-derived H2S” value [2]?
**A.** inhibited

**Q.** And the “H2S synthesis by cystathionine-β-synthase” value (cystathionine-β-synthase)?
**A.** unaffected

**Q.** What about the bioavailability (in vivo) of the same compound?
**A.** 100%

**Q.** And the “plasma clearance profiles, oral versus i.p.” value (in vivo)?
**A.** essentially identical

**Q.** And the “threshold plasma drug level necessary to sustain anti-apnea action” value (in vivo; mouse)?
**A.** 12 to 15 µg/mL

**Q.** What about the “anti-apnea activity at 10 mg/kg dose” value (HO-2 null mice [3]; 10 mg/kg) of the same compound?
**A.** minimal

**Q.** What about the hypoapnea index (HO-2 null mice [3]; 30 mg/kg intraperitoneal) of the same compound?
**A.** reduced by L-PAG and this effect persisted even after 24 hours

**Q.** What about the “occurrence of both obstructive and central apnea” value (HO-2 null mice [3]; 30 mg/kg intraperitoneal) of the same compound?
**A.** markedly reduced

**Q.** What about the “time after administration at which anti-apneic effects were seen” value (HO-2 null mice [3]; 30 mg/kg intraperitoneal) of the same compound?
**A.** ~2 h

**Q.** And the “time after which apnea returned to pre-injection values” (HO-2 null mice [3]; 30 mg/kg intraperitoneal)?
**A.** 24 h

**Q.** What about the ED50 (HO-2 null mice [3]; ip, intraperitoneal route, breathing monitored 6 hours, HO-2 null mice, read-out: ED50 for reducing number of apneas and restoring stable breathing) of the same compound?
**A.** 30 mg/kg

**Q.** And the ED50 (HO-2 null mice [3]; systemic administration, HO2-KO mice, FIG. 11, read-out: ED50 for inhibiting SDB (comparative dose-response))?
**A.** ~30 mg/kg

**Q.** And the “reduction of number of apneas and hypoapnea index after oral administration” value (HO-2 null mice [3]; oral 30 mg/kg, compared with intraperitoneal)?
**A.** equally effective
